Reference: PubChem BioAssay (NCI)
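Following 48 hours of exposure in 96-well plates, responses at five concentrations were used to interpolate endpoints linearly. TGI is the concentration that stops growth completely.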

Columns and labels:
Assay in all cases: growth of human tumour cells (NCI), 48 h
[1] = tested on: A498 renal
[2] = tested on: BT-549 breast
[3] = tested on: CAKI-1 renal
[4] = tested on: COLO 205 colon
[5] = tested on: LOX IMVI melanoma
[6] = tested on: M14 melanoma
[7] = tested on: MALME-3M melanoma
[8] = tested on: MCF7 breast
[9] = tested on: NCI-H522 lung
[10] = tested on: OVCAR-3 ovarian
[11] = tested on: OVCAR-4 ovarian
[12] = tested on: RPMI-8226 leukemia
[13] = tested on: SNB-19 CNS
[14] = tested on: UACC-257 melanoma

SMILES	TGI [1]	TGI [2]	TGI [3]	TGI [4]	TGI [5]	TGI [6]	TGI [7]	TGI [8]	TGI [9]	TGI [10]	TGI [11]	TGI [12]	TGI [13]	TGI [14]
COc1ccc(N2CCN(Cc3c(C(C)=O)[n+](=O)c4ccccc4n3[O-])CC2)cc1	> 100 µM	53.3 µM	> 100 µM	> 100 µM	> 100 µM	> 100 µM	60.6 µM	> 100 µM	> 100 µM	> 100 µM	> 100 µM	> 100 µM	> 100 µM	> 100 µM
COc1ccc(C(=O)/C=C/c2ccc(OCC(=O)O)cc2)cc1	> 100 µM	> 100 µM	> 100 µM	> 100 µM	> 100 µM	> 100 µM	> 100 µM	> 100 µM	> 100 µM	> 100 µM		> 100 µM	> 100 µM	
Cc1nn(-c2ccccc2)c2c1C(c1cc3ccccc3nc1Cl)NC(=S)N2 (configuration not stated)	> 100 µM	> 100 µM	> 100 µM	> 100 µM	56.6 µM	> 100 µM	> 100 µM	> 100 µM	69.5 µM	> 100 µM	> 100 µM	48.7 µM	> 100 µM	> 100 µM
O=C(O)c1cncc(C(=O)O)c1	> 100 µM	> 100 µM	> 100 µM	> 100 µM	> 100 µM	> 100 µM	> 100 µM	> 100 µM	> 100 µM	> 100 µM	> 100 µM	> 100 µM	> 100 µM	> 100 µM
C=C(CN(C)C)C(=O)c1cc(C)ccc1C	43.5 µM	32.5 µM	11.8 µM	3.53 µM	13.8 µM	7.21 µM	7.77 µM	11.5 µM	1.52 µM	18.1 µM	39.4 µM	5.34 µM	39.2 µM	26 µM
O=C1C=CC[C@H](/C=C/C[C@@H](O)C[C@H](O)/C=C/c2ccccc2)O1	27 µM	23.6 µM	19.9 µM	20.4 µM	13.3 µM	27.4 µM	28.6 µM	24.8 µM	18 µM	23.7 µM	28.4 µM		34.1 µM	26.9 µM
CC(=O)O[C@H]1[C@H](OC(C)=O)[C@@H](CN=[N+]=[N-])OCO[C@@H]1CN=[N+]=[N-]	> 100 µM	> 100 µM		> 100 µM	> 100 µM	> 100 µM	> 100 µM	> 100 µM	> 100 µM		> 100 µM	> 100 µM	> 100 µM	> 100 µM
OCCCCn1cc(Cn2ncc3c(SCc4ccccc4)ncnc32)nn1	> 100 µM	> 100 µM	> 100 µM	91.4 µM	> 100 µM	> 100 µM	> 100 µM	> 100 µM	> 100 µM	> 100 µM	> 100 µM	> 100 µM	> 100 µM	> 100 µM
NC(N)=NS(=O)(=O)c1ccc(Nc2c3ccccc3nc3c(C(=O)NC(CO)(CO)CO)cccc23)cc1	72.6 µM	36.7 µM	> 100 µM	51.7 µM	> 100 µM	68.3 µM	45.3 µM	95.3 µM	30.9 µM	> 100 µM		58.5 µM	> 100 µM	> 100 µM
C[C@@H]1OC(=O)C[C@H]2CC(=O)N(CCC3CN(S(=O)(=O)C(F)(F)F)c4ccc(Cc5ccc6c(c5)C(CCN5C[C@H]7[C@@H](CC(=O)O[C@H]7C)CC5=O)CN6S(=O)(=O)C(F)(F)F)cc43)C[C@@H]21 (some centres not stated)	> 100 µM	> 100 µM	> 100 µM	> 100 µM	> 100 µM	> 100 µM	> 100 µM	> 100 µM		> 100 µM	> 100 µM	> 100 µM	> 100 µM	> 100 µM
CC1(C)CCCCCC(C)(CCCCCCCCCCCO)C1=O (configuration not stated)	33 µM	33.8 µM	28.6 µM	30.9 µM	28.7 µM		29.8 µM	29.8 µM	31.1 µM	29.9 µM	28.8 µM	47.2 µM	31.2 µM	27 µM
c1ccc(/N=N\Nc2ccc(-c3nc4ccccc4o3)cc2)nc1	> 100 µM	> 100 µM		49.2 µM	> 100 µM	> 100 µM	> 100 µM	> 100 µM	> 100 µM	> 100 µM	> 100 µM		> 100 µM	83 µM
O=c1c2ccccc2c2c1c1c3ccccc3c(=O)c1c1c3ccccc3c(=O)c21	> 100 µM	> 100 µM	> 100 µM	> 100 µM	> 100 µM	> 100 µM	> 100 µM	> 100 µM	> 100 µM	> 100 µM		> 100 µM	> 100 µM	> 100 µM
O=c1c[n+](-c2ccccc2)[nH]o1	> 100 µM	> 100 µM	> 100 µM	> 100 µM	> 100 µM	> 100 µM	> 100 µM	> 100 µM		> 100 µM	> 100 µM	> 100 µM	> 100 µM	> 100 µM
CC(=O)O[C@H]1CC[C@H]2[C@@H]3CCC4=C(C(=O)C=CC4(C)OC(C)=O)[C@H]3CC[C@]12C (some centres not stated)	> 100 µM	> 100 µM	> 100 µM		> 100 µM	> 100 µM	> 100 µM	73.1 µM	> 100 µM	> 100 µM	> 100 µM	> 100 µM	> 100 µM	> 100 µM
O=C(O)CSc1nnc(CCCCCCCCc2nnc(SCC(=O)O)o2)o1	> 100 µM	> 100 µM	> 100 µM	> 100 µM	> 100 µM	> 100 µM	> 100 µM	> 100 µM	> 100 µM		> 100 µM	> 100 µM	> 100 µM	> 100 µM
O=C(N/N=C/C=C/c1ccc([N+](=O)[O-])o1)c1ccc(Br)s1	> 100 µM	51.8 µM	66.2 µM	33.3 µM	60.7 µM	42.1 µM	37.9 µM	> 100 µM		41.7 µM	40.2 µM	23.4 µM	78.9 µM	
